For experiment [1], the system named is K562 cells. The experiment in a line: MTT cytotoxicity assay, FN adhered vs suspension. Format: cell-based. As for the experimental part:
Plastic 96-well Immunosorp plates (Nunc, Denmark) are coated with 50 μl (40 μg/ml) FN (Life Technologies) or BSA overnight. Cells are washed once and resuspended in serum-free RPMI 1640, then 2×10^4 (K562) cells are added to each FN coated well. 8×10^3 (K562) cells are added to BSA coated wells. Cells are incubated for 2 hours at 37° C., washed with serum free media, and put back into serum-containing media. Following 24 hours in a tissue culture incubator, drug or vehicle control is added to each well for 90 minutes, media is removed and replaced by drug-free media for 96 hours. In some experiments, the drug is allowed to remain in each well for 96 hours. 50 μl 3-[4,5-Dimethylthiazol-2-yl]-2,5-diphenyltetrazolium bromide; Thiazolyl blue (MTT dye) (Sigma) is added to each well for 4 hours, plates are centrifuged and each well aspirated. Dye is solubilized with 100 μl DMSO and plates are read at 540 nm on an automated microtiter plate reader. A blank well containing only medium and drug is also run as a control in all experiments. IC50 values are calculated by linear regression analysis of percent survival vs. drug concentration.
The MTT assay is used to detect differences in the drug sensitivity of FN adhered vs. suspension-cultured cells following a 90 minutes or 96 hours (continuous) exposure to either mitoxantrone or melphalan (L-phenylalanine mustard or LPAM). After a 96 hour period in a cell incubator, cell survival is determined by the ability of viable cells to reduce MTT dye to formazan. IC50 values are derived through linear regression of the log-linear dose-response plots for each cell line to each drug. Student's T-test is used to analyze differences in drug response using data collected from at least three different experiments. FIGS. 8A and 8B depict representative continuous exposure experiments using mitoxantrone and LPAM, respectively.

In experiment [2] the test system is K562 cells. The experiment is described as follows: Adhesion of K562 cells to FN in presence of BCR/ABL inhibitor. Type of experiment: cell-based. To be noted: at the concentrations of inhibitor used in cytotoxicity assays. On the procedure:
Cellular adhesion to FN is determined. In some experiments, cells are pre-incubated for 15 minutes with P4G9, P1D6, P4C10, B3B11, or isotype antibody controls prior to application to wells.
The BCR/ABL kinase is believed to be critical to the survival of CML cells through its effects on a number of signal transduction pathways. Inhibitors of this fusion protein show promise as apoptosis-inducing drugs in CML cells. BCR/ABL inhibition by relatively high doses of the tyrphostin AG957 can have negative effects on FN adhesion. At the concentrations of inhibitor used in cytotoxicity assays, the adhesion of K562 cells to FN is not affected by more than 20-40 percent.

For experiment [3], the system named is BCR/ABL-associated tyrosine kinase activity. The experiment is described as follows: Anti-phosphotyrosine Western blotting. The settings on record: K562 cells, 20 μM, 4 hour treatment.
For experiment [4], the system named is K562 cells. The experiment is described as follows: Annexin V apoptosis analysis, FN adhered vs suspension. Type of experiment: cell-based.
The test system of a further experiment is 8226/S cells. The experiment in a line: Adhesion of 8226 cells to fibronectin after bisphosphonate treatment. Format: cell-based, human. To be noted: 100 micromolar for 1.5 hours before plating.
In experiment [5] the test system is 8226/S myeloma cells. The experiment in a line: MTT cytotoxicity assay, FN-adhered vs BSA/non-adhered cells. Format: cell-based, human. To be noted: for pIC50: Homo sapiens; for mean difference FN-adhered vs BSA: n=3, 1 hour drug exposure. A general note: Tetrazolium dyes change colour on reduction, which living cells bring about.
The test system of experiment [6] is 8226/S myeloma cells. The experiment is described as follows: Annexin V flow cytometry analysis of apoptosis, FN-adhered vs non-adhered. Format: cell-based, human. A general note: Flow cytometry measures light scatter and fluorescence of single cells or particles in a stream.
For another experiment, the system named is 8226/S. Type of experiment: cell-based, human.
The next experiment has as its system K562/VLA-4 cells. The experiment in a line: Annexin V apoptosis, FN adhesion with integrin blocking antibodies. Type of experiment: cell-based. The settings on record: 100 μM, 90 minutes.
The next experiment concerns K562/pcDNA3.1 cells. The description is as above. Format: cell-based. The settings on record: 100 μM, 90 minutes.
Setting [7] is: α4 blocking antibody prior to FN adhesion.
[8] abbreviates: α5 blocking antibody prior to adhesion.
Where [9] appears, read: 1 uM, 1 hour exposure, Annexin V 24 hours later.

Molecules are shown by their SMILES. pIC50: −log10 of the molar value. Read-outs that look alike come from different tables or passages of the source. Marks after values point to notes of the source that are not given here.

Broadly, the pIC50 is −log10 of the IC50, conventionally taken in molar units. Turning to `COC(=O)c1ccc(NCc2cc(O)ccc2O)cc1` [AG957], the negative-log IC50 (pIC50) in the experiment with K562 cells [1] (FN adhered, continuous exposure (96 hours), read-out: Fibronectin mean IC50) was 4.89; in the experiment on K562 cells [1] (continuous exposure (96 hours), read-out: Suspension mean IC50) it was 5.44. The “Fold resistance (FN adhered over suspension)” value (shortened to “Fold resistance”) in the experiment on K562 cells [1] (continuous exposure (96 hours)) came to 3.6 fold. Moreover, in the experiment with K562 cells [2], the “effect on adhesion of K562 cells to FN” value is 20-40%. In experiment [3], the “BCR/ABL associated tyrosine phosphorylation” value is on record as “completely abrogated”.
Regarding `Nc1ccn([C@@H]2O[C@H](CO)[C@@H](O)[C@@H]2O)c(=O)n1` [Ara-C], in the experiment on K562 cells [4] (100 μM, cont. exp.), the “% Control death” value is reported as 54.9* %, the “FN: mean death” value came out at 6.2 ± 1.6% and the “Suspension: mean death” value is reported as 11.3 ± 5.5%.
For the compound `O=C(O)CN(CCN(CC(=O)O)CC(=O)O)CC(=O)O` [EDTA], the “effect on adhesion to fibronectin (FN) coated plates” value (shortened to “effect on adhesion to fibronectin”) with 8226/S cells is on record as “does not significantly affect cellular adhesion”.
Consider `N[C@@H](Cc1ccc(N(CCCl)CCCl)cc1)C(=O)O` [LPAM, L-phenylalanine nitrogen mustard], for which the negative-log IC50 (pIC50) is 4.52 with 8226/S myeloma cells [5] (1 h, read-out: mean IC50, cells grown on BSA); 4.32 in the experiment with 8226/S myeloma cells [5] (read-out: mean IC50, FN-adhered cells); 3.72 in the experiment on K562 cells [1] (Homo sapiens, K562, 1.5 h, read-out: Fibronectin mean IC50); 4.53 in the experiment on K562 cells [1] (Homo sapiens, K562, 1.5 h, read-out: Suspension mean IC50); 4.24 in the experiment on K562 cells [1] (Homo sapiens, K562, 96 h, read-out: Fibronectin mean IC50); 4.59 in the experiment with K562 cells [1] (Homo sapiens, K562, 96 h, read-out: Suspension mean IC50). Further, the “mean difference FN-adhered vs BSA” value with 8226/S myeloma cells [5] was determined as 1.7. Moreover, the “percentage of apoptotic cells, FN-adhered” value in the experiment on 8226/S myeloma cells [6] (50 uM, 24 hours) was 16.53%. Moreover, the “percentage of apoptotic cells, non-adhered” value with 8226/S myeloma cells [6] (50 uM, 24 hours) was 21.5%. In addition, in the experiment on 8226/S, the “effect on cell surface integrin expression” value is listed as “no immediate effects”. Also, the “Fold resistance” value in the experiment with K562 cells [1] (continuous exposure (96 hours)) is on record as 2.25 fold. Besides, the “% Control death” value was 29.3* % with K562 cells [4] (100 μM, 1 hr) and 58.5* % with K562 cells [4] (100 μM, cont. exp.). Besides, the “FN: mean death” value stood at 11.0 ± 8.3% in the experiment with K562 cells [4] (100 μM, 1 hr) and 23.3 ± 6.4% in the experiment on K562 cells [4] (100 μM, cont. exp.). The “Suspension: mean death” value amounted to 37.5 ± 24.0% in the experiment with K562 cells [4] (100 μM, 1 hr) and 39.8 ± 3.2% with K562 cells [4] (100 μM, cont. exp.). Further, the “level of cytoprotection by FN adhesion (in comparison to drug treated suspension cells)” value in the experiment on K562/VLA-4 cells (adhering through α4 and α5) came to 30.0±1.5%; with K562/pcDNA3.1 cells (adhered through α5 alone), 29.9±5.3%. Further, the “level of cytoprotection by FN adhesion” value with K562/VLA-4 cells (setting [7]) is given as 28.4±5.0%; in the experiment with K562/VLA-4 cells (setting [8]) it was 20.6±1.9%; with K562/pcDNA3.1 cells (setting [7]), 29.6±2.3%; in the experiment with K562/pcDNA3.1 cells (setting [8]), 0±11.1%.
With `O=C1c2c(O)ccc(O)c2C(=O)c2c(NCCNCCO)ccc(NCCNCCO)c21` [Mitoxantrone, mitoxantrone], the “Fold resistance” value in the experiment on K562 cells [1] (90 min. exposure) is listed as 3.72 fold; in the experiment on K562 cells [1] (90 min. exposure, listed as mitoxantrone), “approximately 3.7 fold”; in the experiment with K562 cells [1] (continuous exposure (96 hours)), 6.83 fold; in the experiment with K562 cells [1] (continuous exposure (96 hours), listed as mitoxantrone) it was 6.8 fold. Moreover, the pIC50 with K562 cells [1] (Homo sapiens, K562, 1.5 h, 90 min. exposure, read-out: Suspension mean IC50) was 6.69; in the experiment on K562 cells [1] (Homo sapiens, K562, 1.5 h, FN adhered, 90 min. exposure, read-out: Fibronectin mean IC50), 6.12; with K562 cells [1] (Homo sapiens, K562, FN adhered, continuous exposure (96 hours), read-out: Fibronectin mean IC50) it was 6.49; in the experiment on K562 cells [1] (Homo sapiens, K562, continuous exposure (96 hours), read-out: Suspension mean IC50) it was 7.32. In addition, the “% Control death” value with K562 cells [4] (10 μM, cont. exp.) is 69.4* %; in the experiment with K562 cells [4] (50 μM, 1 hr), 58.3* %. Also, the “FN: mean death” value in the experiment with K562 cells [4] (10 μM, cont. exp.) was determined as 29.7 ± 6.2%; in the experiment with K562 cells [4] (50 μM, 1 hr), 27.0 ± 9.4%. The “Suspension: mean death” value in the experiment with K562 cells [4] (10 μM, cont. exp.) was determined as 42.8 ± 8.4%; with K562 cells [4] (50 μM, 1 hr), 46.3 ± 8.4%.
As to `NCCC(O)(P(=O)(O)O)P(=O)(O)O` [Pamidronate, 3-Amino-1-hydroxypropane-1,1-diphosphonic acid], the “effect on adhesion to fibronectin” value in the experiment on 8226/S cells was “effective in preventing FN adhesion”.
`CC[C@]1(O)C[C@H]2CN(CCc3c([nH]c4ccccc34)[C@@](C(=O)OC)(c3cc4c(cc3OC)N(C=O)[C@H]3[C@@](O)(C(=O)OC)[C@H](OC(C)=O)[C@]5(CC)C=CCN6CC[C@]43[C@@H]65)C2)C1` [VCR, vincristine]: in the experiment with K562 cells [4] (10 μM, cont. exp.), the “% Control death” value was determined as 70.2%, the “FN: mean death” value turned out to be 12.5 ± 2.3% and the “Suspension: mean death” value was 17.8 ± 6.4%.
Turning to `O=P(O)(O)C(O)(Cn1ccnc1)P(=O)(O)O` [Zoledronate], the “effect on adhesion to fibronectin” value in the experiment on 8226/S cells is listed as “effective in preventing FN adhesion”.
On to `COc1cccc2c1C(=O)c1c(O)c3c(c(O)c1C2=O)C[C@@](O)(C(=O)CO)C[C@@H]3O[C@H]1C[C@H](N)[C@H](O)[C@H](C)O1` [doxorubicin], for which, in the experiment on 8226/S myeloma cells [5] (FIG. 1, one hour drug exposure), the “Response lower in FN-adhered cells compared to non-adhered controls” value stood at 12.6 fold. Moreover, the negative-log IC50 (pIC50) is 7.07 in the experiment on 8226/S myeloma cells [5] (1 h, grown in suspension, one hour drug exposure, representative experiment FIG. 1, read-out: IC50, non-adhered cells); 6.28 with 8226/S myeloma cells [5] (1 hour drug exposure, n=3, read-out: mean IC50, cells grown on BSA); 5.79 in the experiment on 8226/S myeloma cells [5] (24 hour pre-adhesion, 1 hour drug exposure, n=3, read-out: mean IC50, FN-adhered cells); 6.31 in the experiment with 8226/S myeloma cells [5] (FN-adhered 24 hours prior to one hour drug exposure, representative experiment FIG. 1, read-out: IC50, adhered cells). Further, the “mean difference FN-adhered vs BSA” value in the experiment with 8226/S myeloma cells [5] came to 6.9. Also, the “survival (mitogenic effect)” value in the experiment on 8226/S myeloma cells [5] (subtoxic concentrations, FN-adhered cells) is over 100%. Besides, in the experiment with 8226/S myeloma cells [6] (setting [9]), the “percentage of apoptotic cells, FN-adhered” value worked out at 16.3%. Moreover, the “percentage of apoptotic cells, non-adhered controls” value with 8226/S myeloma cells [6] (setting [9]) amounted to 40.3%. The “effect on cell surface integrin expression” value in the experiment with 8226/S (acute exposure, wide range of concentrations, 1-48 hours) is listed as “no immediate effects”.

The record behind these values is patent US20030004140A1, “Methods for modulating cell-adhesion mediated drug resistance” (priority 2000, published 2003).
